± gives the expanded uncertainty stated by the source.
Conditions: Liquid

SMILES: CC(C)CC(C)(C)C [2,2,4-trimethylpentane]
- vapor or sublimation pressure (372.35 K): 101.33 ± 3 kPa

SMILES: CCO [ethanol]
- vapor or sublimation pressure (351.45 K): 101.33 ± 3 kPa

SMILES: Cc1ccccc1 [toluene]
- vapor or sublimation pressure (383.75 K): 101.33 ± 3 kPa

SMILES: CCCCCC [hexane]
- vapor or sublimation pressure (341.85 K): 101.33 ± 3 kPa
